Data set [1] relates to apple leaf cuticles. Nature of the data set: Membrane penetration test, penetration of dicamba (acid). Conditions: dicamba (acid) alone, 1.0 g/L ai; normal tap water (85 ppm Ca); 20° C./60% rel. air humidity. The source says: The stomata-free cuticles were first dried under air and then installed into stainless steel diffusion cells. […] The water used to make up the aqueous test liquids was local tap water (of known composition). […] In each case, the geometric mean values of the penetration for intact membranes at the mean measurement times are given.

Data set [2] relates to apple leaf cuticles. The data set can be described thus: Membrane penetration test, penetration of MCPA (potassium salt). Format: in vitro ADME. As to conditions: MCPA potassium alone, 1.0 g/L ai in spray liquid; 25° C./56% rel. air humidity.
Procedure: (§1) The potential of the C8/10 glucamide, which is independent of the surfactant action, to promote foliar absorption of active agrochemical ingredients was determined in membrane penetration tests with apple or pear leaf cuticles. […] The stomata-free cuticles were first dried under air and then installed into stainless steel diffusion cells. After application to the original upper side of the leaf and evaporation of the test liquid, i.e. of the aqueous preparations of the active ingredients without or with the C8/10-glucamide-containing spray liquids or comparative compositions, the diffusion cells were transferred into thermostatted blocks and charged with aqueous liquid. The water used to make up the aqueous test liquids was local tap water (of known composition). At regular intervals, samples were taken and, irrespective of the test system, the proportion of active ingredient penetrated was determined either by HPLC or scintillation measurement. […] In all other HPLC variants, only an aliquot was taken. During the experiment, the temperature in the system (block, diffusion cells, liquids, etc.) and the air humidity above the spray coating on the cuticle were known exactly and were monitored. […] The analytical determination was effected either by means of HPLC (1290 Infinity, Agilent) or analysis of radioactivity (Tricarb, Perkin Elmer). […]
Data set [3] relates to apple leaf cuticles. Nature of the data set: Membrane penetration test, penetration of 2,4-D DMA with antagonistic calcium. Format: in vitro ADME. As to conditions: 2,4-D DMA alone, 5 g/L ai; 177 ppm Ca; 25° C./56% rel. air humidity.
Procedure: as §1
The test system of data set [4] is apple leaf cuticles. The data set can be described thus: Membrane penetration test, penetration of sulcotrione. As to conditions: sulcotrione alone, 0.2 g/L ai; 20° C./60% rel. air humidity. It counts as in vitro ADME.
Procedure: as §1

The values below come from patent US20170055524A1, “Aqueous Adjuvant Composition For Increasing The Efficacy Of Electrolyte Active Substances” (priority 2014, published 2017).

Where only a bound is given, the exact number is not on record here.

Consider `COc1c(Cl)ccc(Cl)c1C(=O)O` [Dicamba (acid), dicamba], for which, in the data set on apple leaf cuticles [1], the “Mean penetration of dicamba (acid) after 5 h” value turned out to be 4.4% and the “Mean penetration of dicamba (acid) after 1 day” value came to 12.4%.
Take `Cc1cc(Cl)ccc1OCC(=O)[O-].[K+]` [MCPA potassium, MCPA]: in the data set on apple leaf cuticles [2], the “Mean penetration of MCPA (potassium salt) after 4 h” value was found to be 1.6% and the “Mean penetration of MCPA (potassium salt) after 1 day” value turned out to be 7.2%.
Regarding `CNC.O=C(O)COc1ccc(Cl)cc1Cl` [2,4-D DMA, 2,4-D], in the data set on apple leaf cuticles [3], the “Mean penetration of 2,4-D DMA after 4 h” value worked out at 0.2% and the “Mean penetration of 2,4-D DMA after 1 day” value was 0.3%.
Consider `CS(=O)(=O)c1ccc(C(=O)C2C(=O)CCCC2=O)c(Cl)c1` [Sulcotrione, sulcotrione], for which, in the data set with apple leaf cuticles [4], the “Mean penetration of sulcotrione after 5 h” value was under 1% and the “Mean penetration of sulcotrione after 1 day” value is under 1%.
